PubChem BioAssay (NCI)
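Exposure lasted 48 hours, with cells grown in 96-well plates and compounds tested at five concentrations. GI50 is the concentration that inhibits growth by half. TGI: concentration producing complete growth inhibition.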

What was measured:
Assay in all cases: NCI tumour cell line growth inhibition, 48 h
OVCAR-3 ovarian = test system: OVCAR-3 ovarian
SNB-19 CNS = test system: SNB-19 CNS
COLO 205 colon = test system: COLO 205 colon
EKVX NSCLC = test system: EKVX NSCLC
SF-268 CNS = test system: SF-268 CNS
HCT-15 colon = test system: HCT-15 colon
LOX IMVI melanoma = test system: LOX IMVI melanoma
RPMI-8226 leukemia = test system: RPMI-8226 leukemia
HCT-116 colon = test system: HCT-116 colon
MALME-3M melanoma = test system: MALME-3M melanoma
NCI-H23 lung = test system: NCI-H23 lung
NCI-H460 lung = test system: NCI-H460 lung
UACC-257 melanoma = test system: UACC-257 melanoma
MDA-MB-231 breast = test system: MDA-MB-231 breast
K-562 leukemia = test system: K-562 leukemia
KM12 colon = test system: KM12 colon
SF-539 CNS = test system: SF-539 CNS
UACC-62 melanoma = test system: UACC-62 melanoma
NCI-H226 lung = test system: NCI-H226 lung
OVCAR-5 ovarian = test system: OVCAR-5 ovarian
OVCAR-8 ovarian = test system: OVCAR-8 ovarian
CCRF-CEM leukemia = test system: CCRF-CEM leukemia
MOLT-4 leukemia = test system: MOLT-4 leukemia
HL-60(TB) leukemia = test system: HL-60(TB) leukemia
SF-295 CNS = test system: SF-295 CNS
SK-OV-3 ovarian = test system: SK-OV-3 ovarian
ACHN renal = test system: ACHN renal
HS 578T breast = test system: HS 578T breast
MDA-MB-435 = test system: MDA-MB-435
HOP-62 NSCLC = test system: HOP-62 NSCLC
NCI/ADR-RES ovarian = test system: NCI/ADR-RES ovarian
SW-620 colon = test system: SW-620 colon
786-0 renal = test system: 786-0 renal
HOP-92 NSCLC = test system: HOP-92 NSCLC
SN12C renal = test system: SN12C renal
MDA-MB-468 breast = test system: MDA-MB-468 breast
SR leukemia = test system: SR leukemia
A549 NSCLC = test system: A549 NSCLC
T-47D breast = test system: T-47D breast
SNB-75 CNS = test system: SNB-75 CNS
HCC-2998 colon = test system: HCC-2998 colon
OVCAR-4 ovarian = test system: OVCAR-4 ovarian
UO-31 renal = test system: UO-31 renal
TK-10 renal = test system: TK-10 renal
PC-3 prostate = test system: PC-3 prostate
BT-549 breast = test system: BT-549 breast
A498 renal = test system: A498 renal
M14 melanoma = test system: M14 melanoma
IGROV1 ovarian = test system: IGROV1 ovarian
HT29 colon = test system: HT29 colon
CAKI-1 renal = test system: CAKI-1 renal
MCF7 breast = test system: MCF7 breast
NCI-H522 lung = test system: NCI-H522 lung
SK-MEL-28 melanoma = test system: SK-MEL-28 melanoma
DU-145 prostate = test system: DU-145 prostate
SK-MEL-5 melanoma = test system: SK-MEL-5 melanoma
U251 CNS = test system: U251 CNS
RXF 393 renal = test system: RXF 393 renal
SK-MEL-2 melanoma = test system: SK-MEL-2 melanoma

## Cc1ccc(C(=O)NCCCNc2nc(Nc3ccc(N4CCN(C)CC4)cc3)nc3ccsc23)cc1
OVCAR-3 ovarian
  GI50: 3.08 µM
  TGI: 10.9 µM
SNB-19 CNS
  GI50: 10.2 µM
  TGI: 22.2 µM
COLO 205 colon
  GI50: 2.35 µM
  TGI: 5.43 µM
EKVX NSCLC
  GI50: 10.2 µM
  TGI: 22.3 µM
SF-268 CNS
  GI50: 2.46 µM
  TGI: 17.9 µM
HCT-15 colon
  GI50: 2.54 µM
  TGI: 11.2 µM
LOX IMVI melanoma
  GI50: 1.71 µM
  TGI: 3.86 µM
RPMI-8226 leukemia
  GI50: 2.02 µM
  TGI: 6.4 µM
HCT-116 colon
  GI50: 2.62 µM
  TGI: 10.2 µM
MALME-3M melanoma
  GI50: 1.79 µM
  TGI: 3.27 µM
NCI-H23 lung
  GI50: 5.59 µM
  TGI: 20.5 µM
NCI-H460 lung
  GI50: 3.75 µM
  TGI: 14 µM
UACC-257 melanoma
  GI50: 2.2 µM
  TGI: 6.2 µM
MDA-MB-231 breast
  GI50: 3.17 µM
  TGI: 10.7 µM
K-562 leukemia
  GI50: 1.74 µM
  TGI: 18.4 µM
KM12 colon
  GI50: 4.02 µM
  TGI: 15.8 µM
SF-539 CNS
  GI50: 1.73 µM
  TGI: 3.42 µM
UACC-62 melanoma
  GI50: 1.98 µM
  TGI: 4.21 µM
NCI-H226 lung
  GI50: 4.79 µM
  TGI: 19.4 µM
OVCAR-5 ovarian
  GI50: 11 µM
  TGI: 25.5 µM
OVCAR-8 ovarian
  GI50: 3 µM
  TGI: 11.7 µM
CCRF-CEM leukemia
  GI50: 1.87 µM
  TGI: > 100 µM
MOLT-4 leukemia
  GI50: 1.8 µM
  TGI: 4.89 µM
HL-60(TB) leukemia
  GI50: 1.99 µM
  TGI: 4.52 µM
SF-295 CNS
  GI50: 2.68 µM
  TGI: 7.7 µM
SK-OV-3 ovarian
  GI50: 10.8 µM
  TGI: 24 µM
ACHN renal
  GI50: 3.99 µM
  TGI: 15 µM
HS 578T breast
  GI50: 2.55 µM
  TGI: 18.3 µM
MDA-MB-435
  GI50: 4.31 µM
  TGI: 15.5 µM
HOP-62 NSCLC
  GI50: 10.3 µM
  TGI: 23.4 µM
NCI/ADR-RES ovarian
  GI50: 3.11 µM
  TGI: 11.4 µM
SW-620 colon
  GI50: 2.63 µM
  TGI: 8 µM
786-0 renal
  GI50: 2.02 µM
  TGI: 6.3 µM
HOP-92 NSCLC
  GI50: 2.23 µM
  TGI: 10.4 µM
SN12C renal
  GI50: 7.19 µM
  TGI: 20.7 µM
MDA-MB-468 breast
  GI50: 1.3 µM
  TGI: 4.45 µM
SR leukemia
  GI50: 1.69 µM
  TGI: 4.71 µM
A549 NSCLC
  GI50: 3.99 µM
  TGI: 16.3 µM
T-47D breast
  GI50: 2.25 µM
  TGI: 7.62 µM
SNB-75 CNS
  GI50: 1.91 µM
  TGI: 12.1 µM
HCC-2998 colon
  GI50: 3.44 µM
  TGI: 9.5 µM
OVCAR-4 ovarian
  GI50: 3.45 µM
  TGI: 15 µM
UO-31 renal
  GI50: 3.57 µM
  TGI: 15.3 µM
TK-10 renal
  GI50: 3.14 µM
  TGI: 9.36 µM
PC-3 prostate
  GI50: 3.33 µM
  TGI: 14.8 µM
BT-549 breast
  GI50: 2.46 µM
  TGI: 7.15 µM
A498 renal
  GI50: 12.3 µM
  TGI: 24.9 µM
M14 melanoma
  GI50: 2.14 µM
  TGI: 4.77 µM
IGROV1 ovarian
  GI50: 4.4 µM
  TGI: 17 µM
HT29 colon
  GI50: 2.06 µM
  TGI: 5.96 µM
CAKI-1 renal
  GI50: 3.3 µM
  TGI: 14.1 µM
MCF7 breast
  GI50: 3.22 µM
  TGI: 11.4 µM
NCI-H522 lung
  GI50: 2.21 µM
  TGI: 5.86 µM
SK-MEL-28 melanoma
  GI50: 2.18 µM
  TGI: 4.64 µM
DU-145 prostate
  GI50: 5.89 µM
  TGI: 19.2 µM
SK-MEL-5 melanoma
  GI50: 1.84 µM
  TGI: 4.08 µM
U251 CNS
  GI50: 2.78 µM
  TGI: 11.1 µM
RXF 393 renal
  GI50: 1.47 µM
  TGI: 3.71 µM
SK-MEL-2 melanoma
  GI50: 4.33 µM
  TGI: 16.5 µM
